This is an account of results in patent US10030027B2, “Soluble guanylate cyclase stimulators” (MERCK SHARP & DOHME CORP., priority 2015, dated 2018).

SMILES strings stand for the structures.

The target in one assay is sGC α1/β1 heterodimer (Homo sapiens (Human), UniProt Q02108+Q02153). Nature of the assay: Cell-based sGC functional assay (cyclic GMP assay for sGC activator: CASA assay). Also noted: % Activation: concentration or dose not given beside the values. To be noted: CHO-K1/sGC cells; for Emax: CHO-K1, activity expressed as percentage of compound A (standard), read-out: % Activation; for EC50: inflection point, 4P fit, read-out: IP. The method in brief:
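CHO-K1 cells stably expressing sGC α1/β1 were pre-incubated with or without 1 μM DETA-NO (30 min, 25 °C), then exposed to compounds for 1 hr at 37 °C with 0.5 mM IBMX. Intracellular cGMP was read by HTRF and expressed as a percentage of a reference heme-dependent activator's maximum.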

In assay [1] the target is human recombinant sGC enzyme (Homo sapiens (Human), UniProt Q02108+Q02153). Kind of assay: Size Exclusion Chromatography (SEC) competition binding assay using [3H] Ex-77B as the radioligand. Conditions: [3H] Ex-77B radioligand, 24 hours at 37° C. The method in brief:
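Recombinant human sGC binding measured by competition against tritiated Ex-77B radioligand, with non-specific binding defined by 1 μM unlabeled Ex-77B.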
A general note: Size exclusion chromatography separates by hydrodynamic size, large species first.

Take `CC1(c2nc(-c3ccc(C(=O)O)cc3)cs2)C(=O)Nc2nc(-c3nn(CCC(F)(F)C(F)(F)F)c4cc(Cl)ccc34)nc(N)c21` (stereo not drawn) [Example 156A, 4-(2-{4-amino-2-[6-chloro-1-(3,3,4,4,4-penta-fluorobutyl)-1H-indazol-3-yl]-5-methyl-6-oxo-6,7-dihydro-5H-pyrrolo[2,3-d]pyrimidin-5-yl}-1,3-thiazol-4-yl)benzoic acid]: on sGC α1/β1 heterodimer, the Emax came out at 93.5% and the EC50 was determined as 161 nM. In addition, the inhibition constant Ki (in general, the dissociation constant of the complex between target and ligand, obtained from inhibition or displacement) in assay [1] was found to be 0.17 nM.

Consider `CC(C)(Cc1csc([C@]2(C)C(=O)Nc3nc(-c4nn(CC5CCCC5)c5cc(Cl)ccc45)nc(N)c32)n1)C(=O)O` [Example 162A, (S)-3-(2-{4-amino-2-[6-chloro-1-(cyclopentyl-methyl)-1H-indazol-3-yl]-5-methyl-6-oxo-6,7-dihydro-5H-pyrrolo[2,3-d]pyrimidin-5-yl}-1,3-thiazol-4-yl)-2,2-dimethyl-propanoic acid], for which, on sGC α1/β1 heterodimer, the Emax was 76.5% and the EC50 was 69 nM. In addition, in assay [1], the inhibitory constant (Ki) worked out at 0.15 nM.

In the case of `CC(C)(CCc1coc(C2(C)C(=O)Nc3nc(-c4nn(Cc5ccccc5F)c5cc(Cl)ccc45)nc(N)c32)n1)C(=O)O` (stereo not drawn) [Example 167B, 4-(2-{4-amino-2-[6-chloro-1-(2-fluorobenzyl)-1H-indazol-3-yl]-5-methyl-6-oxo-6,7-dihydro-5H-pyrrolo[2,3-d]pyrimidin-5-yl}-1,3-oxazol-4-yl)-2,2-dimethyl-butanoic acid], on sGC α1/β1 heterodimer, the Emax was 107% and the EC50 amounted to 93 nM. Moreover, the inhibitory constant (Ki) in assay [1] was determined as 0.07 nM.

Take `C[C@@]1(c2ccc(CCC(=O)N[C@H](CO)C(=O)O)cc2)C(=O)Nc2nc(-c3nn(Cc4ccccc4F)c4ncccc34)nc(N)c21` [Example 106B, (5S)-(3-(4-{4-amino-2-[1-(2-fluorobenzyl)-1H-pyrazolo[3,4-b]pyridin-3-yl]-5-methyl-6-oxo-6,7-dihydro-5H-pyrrolo[2,3-d]pyrimidin-5-yl}phenyl)propanoyl)-D-serine]: at sGC α1/β1 heterodimer, the Emax turned out to be 70% and the EC50 worked out at 1500 nM. Besides, the inhibitory constant (Ki) in assay [1] amounted to 0.058 nM.

Take `Cc1cccc(Cn2nc(-c3nc(N)c4c(n3)NC(=O)C4(C)c3nc(CC(C)(C)C(=O)O)co3)c3ccc(Cl)cc32)c1` (stereo not drawn) [Example 186A, 3-(2-{4-amino-2-[6-chloro-1-(3-methylbenzyl)-1H-indazol-3-yl]-5-methyl-6-oxo-6,7-dihydro-5H-pyrrolo[2,3-d]pyrimidin-5-yl}-1,3-oxazol-4-yl)-2,2-dimethyl-propanoic acid]: on sGC α1/β1 heterodimer, the Emax stood at 83.3% and the EC50 came out at 205 nM. In addition, the Ki in assay [1] amounted to 0.12 nM.

`CC(C)(Cc1ccc(C2(C)C(=O)Nc3nc(-c4nn(CCCC(F)(F)F)c5cc(Cl)ccc45)nc(N)c32)cc1)C(=O)O` (stereo not drawn) [Example 42B, 3-(4-{4-amino-2-[6-chloro-1-(4,4,4-trifluorobutyl)-1H-indazol-3-yl]-5-methyl-6-oxo-6,7-dihydro-5H-pyrrolo[2,3-d]pyrimidin-5-yl}phenyl)-2,2-dimethylpropanoic acid]: on sGC α1/β1 heterodimer, the Emax amounted to 84% and the EC50 was found to be 1050 nM. Also, the Ki in assay [1] turned out to be 0.951 nM.

Regarding `Cc1cccc(Cn2nc(-c3nc(N)c4c(n3)NC(=O)C4(C)c3nc(CC(C)(C)C(=O)O)co3)c3ccccc32)c1F` (stereo not drawn) [Example 233A, 3-(2-{4-amino-2-[1-(2-fluoro-3-methylbenzyl)-1H-indazol-3-yl]-5-methyl-6-oxo-6,7-dihydro-5H-pyrrolo[2,3-d]pyrimidin-5-yl}-1,3-oxazol-4-yl)-2,2-dimethyl-propanoic acid], on sGC α1/β1 heterodimer, the Emax turned out to be 141% and the EC50 was found to be 204 nM. Also, the Ki in assay [1] came to 0.083 nM.

`Cc1cccc(Cn2nc(-c3nc(N)c4c(n3)NC(=O)[C@@]4(C)c3ccc(CCC(=O)O)cc3)c3ccc(Cl)cc32)c1` [Example 66B, (S)-3-(4-{4-amino-2-[6-chloro-1-(3-methylbenzyl)-1H-indazol-3-yl]-5-methyl-6-oxo-6,7-dihydro-5H-pyrrolo[2,3-d]pyrimidin-5-yl}phenyl)propanoic acid]: at sGC α1/β1 heterodimer, the Emax amounted to 107% and the EC50 came to 238 nM. Further, in assay [1], the Ki came out at 0.495 nM.

Take `CC1(c2ccc(Cc3nn[nH]n3)cc2)C(=O)Nc2nc(-c3nn(Cc4ccccc4F)c4cc(Cl)ccc34)nc(N)c21` (stereo not drawn) [Example 244A, 5-{4-[(2H-tetrazol-5-yl)methyl]phenyl}-4-amino-2-[6-chloro-2-(2-fluorobenzyl)-1H-indazol-3-yl]-5-methyl-5,7-dihydro-6H-pyrrolo[2,3-d] pyrimidin-6-one]: on sGC α1/β1 heterodimer, the Emax is 93.3% and the EC50 was determined as 2730 nM. Also, the Ki in assay [1] amounted to 0.063 nM.

On to `CC(C)(Cn1cc(C2(C)C(=O)Nc3nc(-c4nn(Cc5ccccc5F)c5cc(Cl)ccc45)nc(N)c32)cn1)C(=O)O` (stereo not drawn) [Example 171A, 3-(4-{4-amino-2-[6-chloro-1-(2-fluorobenzyl)-1H-indazol-3-yl]-5-methyl-6-oxo-6,7-dihydro-5H-pyrrolo[2,3-d]pyrimidin-5-yl}-1H-pyrazol-1-yl)-2,2-dimethyl-propanoic acid], for which, on sGC α1/β1 heterodimer, the Emax is 135% and the EC50 was determined as 1220 nM. In addition, in assay [1], the inhibition constant (Ki) was 0.094 nM.

In the case of `C[C@@]1(c2ccc(CCC(=O)O)cc2)C(=O)Nc2nc(-c3nn(Cc4ccccc4F)c4ncc(F)cc34)nc(N)c21` [Example 23B, (S)-3-(4-{4-amino-2-[5-fluoro-1-(2-fluorobenzyl)-1H-pyrazolo[3,4-b]pyridin-3-yl]-5-methyl-6-oxo-6,7-dihydro-5H-pyrrolo[2,3-d]pyrimidin-5-yl}phenyl)propanoic acid], at sGC α1/β1 heterodimer, the Emax is 109% and the EC50 was found to be 203 nM. Moreover, the Ki in assay [1] came to 0.099 nM.

In the case of `CC1(c2ccc(C(=O)O)cc2)C(=O)Nc2nc(-c3nn(Cc4ccccc4F)c4cc(Cl)ccc34)nc(N)c21` (stereo not drawn) [Example 209B, 4-{4-amino-2-[6-chloro-1-(2-fluorobenzyl)-1H-indazol-3-yl]-5-methyl-6-oxo-6,7-dihydro-5H-pyrrolo[2,3-d]pyrimidin-5-yl} benzoic acid], at sGC α1/β1 heterodimer, the Emax came out at 94.4% and the EC50 amounted to 2480 nM. In assay [1], the Ki is 1.64 nM.

Consider `CC(C)(Cc1csc([C@]2(C)C(=O)Nc3nc(-c4nn(CC5CCCCO5)c5cc(F)ccc45)nc(N)c32)n1)C(=O)O` (single isomer, unassigned) [Example 133AA], for which, at sGC α1/β1 heterodimer, the Emax was found to be 104% and the EC50 is 657 nM. The Ki in assay [1] came to 0.513 nM.

As for `CC(C)(Cc1coc(C2(C3CC3)C(=O)Nc3nc(-c4nn(Cc5ccccc5F)c5cc(Cl)ccc45)nc(N)c32)n1)C(=O)O` (stereo not drawn) [Example 138B, 3-(2-{4-amino-2-[6-chloro-1-(2-fluorobenzyl)-1H-indazol-3-yl]-5-cyclopropyl-6-oxo-6,7-dihydro-5H-pyrrolo[2,3-d]pyrimidin-5-yl}-1,3-oxazol-4-yl)-2,2-dimethylpropanoic acid], on sGC α1/β1 heterodimer, the Emax was 114% and the EC50 amounted to 375 nM. For the same molecule, the inhibition constant (Ki) in assay [1] worked out at 0.058 nM.

Turning to `Cc1ccc(F)c(Cn2nc(-c3nc(N)c4c(n3)NC(=O)C4(C)c3nc(CC(C)(C)C(=O)O)co3)c3ccc(Cl)cc32)c1` (stereo not drawn) [Example 213A, 3-(2-{4-amino-2-[6-chloro-1-(2-fluoro-5-methyl-benzyl)-1H-indazol-3-yl]-5-methyl-6-oxo-6,7-dihydro-5H-pyrrolo[2,3-d]pyrimidin-5-yl} 1,3-oxazol-4-yl)-2,2-dimethyl-propanoic acid], on sGC α1/β1 heterodimer, the Emax amounted to 94.9% and the EC50 turned out to be 839 nM. Also, the Ki in assay [1] worked out at 0.123 nM.

Consider `CC(C)(Cc1csc([C@]2(C)C(=O)Nc3nc(-c4nn(CC5CCCCO5)c5ccccc45)nc(N)c32)n1)C(=O)O` (single isomer, unassigned) [Example 229AB], for which the “% Activation” value on sGC α1/β1 heterodimer (activity expressed as percentage of compound A (standard)) is reported as 72.9%. For the same molecule, the EC50 at sGC α1/β1 heterodimer came out at 179 nM. Also, in assay [1], the Ki came out at 0.238 nM.

With `CC1(c2ccc(/C=C/C(=O)O)cc2)C(=O)Nc2nc(-c3nn(CCC(F)(F)C(F)(F)F)c4cc(Cl)ccc34)nc(N)c21` (stereo not drawn) [Example 157A, (2E)-3-(4-{4-amino-2-[6-chloro-1-(3,3,4,4,4-penta-fluorobutyl)-1H-indazol-3-yl]-5-methyl-6-oxo-6,7-dihydro-5H-pyrrolo[2,3-d]pyrimidin-5-yl}phenyl)prop-2-enoic acid], on sGC α1/β1 heterodimer, the Emax was determined as 143% and the EC50 was determined as 185 nM. The Ki in assay [1] was 0.258 nM.

As to `Cc1oc(C2(C)C(=O)Nc3nc(-c4nn(Cc5cccc(F)c5)c5cc(F)ccc45)nc(N)c32)nc1CC(C)(C)C(=O)O` (stereo not drawn) [Example 198B, 3-(2-{4-amino-2-[6-fluoro-1-(3-fluorobenzyl)-1H-indazol-3-yl]-5-methyl-6-oxo-6,7-dihydro-5H-pyrrolo[2,3-d]pyrimidin-5-yl}-5-methyl-1,3 - oxazol-4-yl)-2,2-dimethyl-propanoic acid], on sGC α1/β1 heterodimer, the Emax is 134% and the EC50 was found to be 1070 nM. The inhibition constant (Ki) in assay [1] was 0.107 nM.

Regarding `CC1(c2ccc(CC(=O)O)cc2)C(=O)Nc2nc(-c3nn(Cc4ccccc4F)c4ncccc34)nc(N)c21` (stereo not drawn) [Example 114A, (4-{4-Amino-2-[1-(2-fluorobenzyl)-1H-pyrazolo[3,4-b]pyridin-3-yl]-5-methyl-6-oxo-6,7-dihydro-5H-pyrrolo[2,3-d]pyrimidin-5-yl}phenyl)acetic acid], on sGC α1/β1 heterodimer, the Emax worked out at 108% and the EC50 was found to be 1340 nM. Also, in assay [1], the Ki was 0.092 nM.
